# Measurements taken from the NIST ThermoML archive (doi:10.1016/j.fluid.2016.11.022).
# ± gives the expanded uncertainty stated by the source.
# Legend:
# [1] = Liquid; for self diffusion coefficient: NMR
# [2] = xn = mol fraction of the nth substance listed; details: 343.15 K, Liquid; for viscosity: Oscillating piston [Cambridge Applied Systems Model]; for molar volume: High-pressure cell with syringe pump
compound,measurement,setting,value
"FCC(F)(F)F [1,1,1,2-tetrafluoroethane]",self diffusion coefficient,"[1]; 298.15 K, 670 kPa",5.95e-09 m2/s
CCCCCC[n+]1ccn(C)c1.O=S(=O)([N-]S(=O)(=O)C(F)(F)F)C(F)(F)F + FCC(F)(F)F,viscosity,"[2]; 100 kPa, x2 = 0",14.07 ± 0.35 mPa·s
CCCCCC[n+]1ccn(C)c1.O=S(=O)([N-]S(=O)(=O)C(F)(F)F)C(F)(F)F,self diffusion coefficient,"[1]; 298.15 K, 100 kPa",1.79e-11 m2/s
same,self diffusion coefficient,"[1]; 323.15 K, 100 kPa",5.54e-11 m2/s
same,self diffusion coefficient,"[1]; 343.15 K, 100 kPa",1.07e-10 m2/s
same,viscosity,"[1]; 343.15 K, 100 kPa, Oscillating piston [Cambridge Applied Systems Model]",14.07 ± 0.35 mPa·s
"FCC(F)(F)F [1,1,1,2-tetrafluoroethane] + CCCCCC[n+]1ccn(C)c1.O=S(=O)([N-]S(=O)(=O)C(F)(F)F)C(F)(F)F",molar volume,"[2]; 84 kPa, x1 = 0.0397",0.0003358 ± 3.2e-06 m3/mol
same,molar volume,"[2]; 212 kPa, x1 = 0.1086",0.0003159 ± 2.8e-06 m3/mol
same,viscosity,"[2]; 310 kPa, x1 = 0.148",12.62 ± 0.31 mPa·s
same,molar volume,"[2]; 395 kPa, x1 = 0.1956",0.0002928 ± 2.6e-06 m3/mol
same,viscosity,"[2]; 610 kPa, x1 = 0.276",11.97 ± 1.3 mPa·s
same,molar volume,"[2]; 615 kPa, x1 = 0.2904",0.0002669 ± 2.2e-06 m3/mol
same,viscosity,"[2]; 850 kPa, x1 = 0.364",9.33 ± 1.6 mPa·s
same,molar volume,"[2]; 971 kPa, x1 = 0.4272",0.0002313 ± 1.8e-06 m3/mol
same,viscosity,"[2]; 1130 kPa, x1 = 0.459",8.09 ± 0.18 mPa·s
same,molar volume,"[2]; 1320 kPa, x1 = 0.5508",0.0001984 ± 1.4e-06 m3/mol
same,viscosity,"[2]; 1470 kPa, x1 = 0.575",7.06 ± 0.3 mPa·s
same,molar volume,"[2]; 1732 kPa, x1 = 0.6867",0.0001653 ± 1e-06 m3/mol
same,molar volume,"[2]; 1956 kPa, x1 = 0.777",0.0001436 ± 8e-07 m3/mol
same,molar volume,"[2]; 2016 kPa, x1 = 0.8075",0.0001367 ± 6e-07 m3/mol
same,viscosity,"[2]; 2030 kPa, x1 = 0.813",3.24 ± 0.07 mPa·s
same,molar volume,"[2]; 2064 kPa, x1 = 0.8427",0.0001289 ± 6e-07 m3/mol
same,molar volume,"[2]; 2075 kPa, x1 = 0.8572",0.0001265 ± 4e-07 m3/mol
